Assay results published in patent EP4741395A1, “NOVEL COMPOUND SENSITIVE TO NITROGEN MONOXIDE AND PHARMACEUTICAL COMPOSITION COMPRISING SAME” (Omniamed Co. Ltd, priority 2023, dated 2025).

Columns and labels:
Raw 264.7 cell line = assay: NO scavenging activity in LPS-treated immune cells (Griess reagent); assay type: cell-based; details: Mus musculus, RAW264.7, Raw 264.7, LPS 500 ng/mL, 24 hours, read-out: NO Scavenging Activity (%) (Mean±SD)
IL-6 (Interleukin-6) = assay: Inhibition of inflammatory cytokine secretion in LPS-treated immune cells (IL-6 sandwich ELISA); assay type: cell-based; details: Mus musculus, RAW264.7, Raw 264.7, LPS 500 ng/mL, 24 hours, read-out: IL-6 Reduction Activity (%) (Mean±SD)
Procedure: Raw 264.7 cell line was seeded in a 48-well plate at a density of 8×10^4 cells/well, and cultured at 37°C in a DMEM medium including 10% FBS, 100 U/mL of penicillin and 100 µg/mL of streptomycin.
The medium was cultured overnight, and then replaced with a fresh medium including 10 µM of the pharmaceutical composition sensitive to nitrogen monoxide including the compound of each of Examples 1 and 11 to 13 and 500 ng/mL of LPS, and the fresh medium was cultured again for another 24 hours.
Lastly, the supernatant was collected, and then the level of IL-6 (Interleukin-6) expression was analyzed using a Sandwich enzyme-linked immunosorbent assay (ELISA). Specifically, a standard solution and 50 µL of the diluted supernatant were introduced to each well of a well plate coated with an antibody specific to IL-6, and after binding IL-6 to the immobilized antibody, the well was washed with a washing buffer, followed by a reaction with HRP as a secondary antibody for 30 minutes at room temperature. The well was washed three times with a washing buffer, then color was developed using TMB (3,3', 5,5'-tetramethyl benzidine) as a substrate, and the reaction was stopped using 1 M sulfuric acid to measure the degree of color development at an absorbance of 450 nm.

splenocytes [1] = assay: NO scavenging activity in Concanavalin A-treated splenocytes (Griess assay); assay type: cell-based, C57BL/6 mouse; details: Mus musculus, Splenocyte, Concanavalin A 5 µg/mL, 72 hours, read-out: NO Scavenging Activity (%) (Mean±SD)
Procedure: (§1) A spleen was isolated from an 8-week-old C57BL/6 mouse, and splenocytes were isolated using a physical method.
(§2) The separated splenocytes were diluted to a concentration of 5×10^6 cells/mL in a RPMI 1640 medium including 10% FBS, 100 U/mL of penicillin and 100 µg/mL of streptomycin, and the diluted splenocytes were dispensed at 500 µL/well into a 48-well plate and 100 µL/well into a 96-well plate, and cultured for 72 hours in an incubator. The splenocytes were treated with Concanavalin A (5 µg/mL) when dispensed to induce an immune response, and herein, […] of the pharmaceutical composition including the compound according to each of the Examples was also added thereto. After 72 hours, the supernatant was collected, and the level of remaining NO was checked through a Griess assay, and calculated by the following Equation 4.

IFN-γ = IFN-γ reduction activity in Concanavalin A-treated splenocytes (quantitative ELISA); assay type: cell-based, C57BL/6 mouse; details: Mus musculus, Splenocyte, Concanavalin A 5 µg/mL, 72 hours, read-out: IFN-γ Reduction Activity (%) (Mean±SD)
Procedure: as §1, §2
NO is one of important inflammatory mediators, and may increase the level of inflammatory cytokine. Concanavalin A (5 µg/mL), which induces an immune response in splenocytes, and the compound of each of Examples were treated in a concentration-dependent manner to check whether the level of IFN-γ, a representative inflammatory cytokine, was reduced. The supernatant was collected 72 hours after the treatment, and analyzed using a quantitative enzyme-linked immunosorbent assay (Quantitative-ELISA).

splenocytes [2] = assay: Inhibitory activity on cell proliferation in splenocytes (CCK-8 analysis); assay type: cell-based, C57BL/6 mouse; details: Mus musculus, Splenocyte, Concanavalin A 5 µg/mL, 72 hours, read-out: Inhibitory Activity on Cell Proliferation (%) (Mean±SD)
JAK 2 = target: T1, JAK 2 (Homo sapiens, UniProt O60674); assay: JAK Human TK kinase enzymatic radiometric assay (Eurofins), JAK 2; assay type: biochemical; set-up: unit not given here; details: value close to 100 indicates low JAK activity of the compound
T1 construct: purchased Eurofins Scientific (assay service)
T1 sequence (O60674 whole entry): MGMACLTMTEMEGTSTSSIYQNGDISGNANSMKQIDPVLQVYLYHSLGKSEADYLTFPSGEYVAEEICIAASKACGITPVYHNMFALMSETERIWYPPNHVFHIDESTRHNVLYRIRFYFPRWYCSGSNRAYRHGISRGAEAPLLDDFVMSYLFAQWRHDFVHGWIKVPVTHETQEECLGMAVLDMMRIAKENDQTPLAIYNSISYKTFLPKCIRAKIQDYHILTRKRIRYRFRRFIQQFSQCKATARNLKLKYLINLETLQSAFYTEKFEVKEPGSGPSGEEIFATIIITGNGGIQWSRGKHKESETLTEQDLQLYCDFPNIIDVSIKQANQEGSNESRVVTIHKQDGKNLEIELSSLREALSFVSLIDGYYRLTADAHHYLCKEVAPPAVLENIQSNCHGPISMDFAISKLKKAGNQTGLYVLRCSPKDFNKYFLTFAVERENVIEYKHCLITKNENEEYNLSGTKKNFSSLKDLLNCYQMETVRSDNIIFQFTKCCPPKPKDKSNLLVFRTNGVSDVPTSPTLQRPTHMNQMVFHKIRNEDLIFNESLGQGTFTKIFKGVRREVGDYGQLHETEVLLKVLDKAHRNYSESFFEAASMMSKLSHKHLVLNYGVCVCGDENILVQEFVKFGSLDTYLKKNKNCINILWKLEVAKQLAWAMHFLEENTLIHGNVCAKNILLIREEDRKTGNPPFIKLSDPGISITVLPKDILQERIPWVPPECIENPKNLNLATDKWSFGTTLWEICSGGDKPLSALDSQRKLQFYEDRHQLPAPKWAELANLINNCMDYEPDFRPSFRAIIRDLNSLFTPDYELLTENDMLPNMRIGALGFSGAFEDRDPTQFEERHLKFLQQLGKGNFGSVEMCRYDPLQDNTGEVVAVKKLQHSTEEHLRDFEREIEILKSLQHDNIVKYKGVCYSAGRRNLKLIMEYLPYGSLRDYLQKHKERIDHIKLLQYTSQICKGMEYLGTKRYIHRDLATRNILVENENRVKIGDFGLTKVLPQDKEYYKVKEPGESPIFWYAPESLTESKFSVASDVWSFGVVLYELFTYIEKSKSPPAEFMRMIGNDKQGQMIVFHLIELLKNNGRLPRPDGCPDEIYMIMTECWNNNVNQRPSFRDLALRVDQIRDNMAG
Source text: (§3) For the compounds of the Examples, JAK activity of each of the compounds was verified using the JAK Human TK Kinase Enzymatic Radiometric Kinase Profiler Assay service provided by Eurofins Scientific.
(§4) The activity was verified after inducing a reaction at the JAK 1, 2 and 3 active sites using radioactively labeled ATP.

JAK 3 = target: T2, JAK 3 (Homo sapiens, UniProt P52333); assay: JAK Human TK kinase enzymatic radiometric assay (Eurofins), JAK 3; assay type: biochemical; set-up: unit not given here; details: value close to 100 indicates low JAK activity of the compound
T2 construct: purchased Eurofins Scientific (assay service)
T2 sequence (P52333 1-1124): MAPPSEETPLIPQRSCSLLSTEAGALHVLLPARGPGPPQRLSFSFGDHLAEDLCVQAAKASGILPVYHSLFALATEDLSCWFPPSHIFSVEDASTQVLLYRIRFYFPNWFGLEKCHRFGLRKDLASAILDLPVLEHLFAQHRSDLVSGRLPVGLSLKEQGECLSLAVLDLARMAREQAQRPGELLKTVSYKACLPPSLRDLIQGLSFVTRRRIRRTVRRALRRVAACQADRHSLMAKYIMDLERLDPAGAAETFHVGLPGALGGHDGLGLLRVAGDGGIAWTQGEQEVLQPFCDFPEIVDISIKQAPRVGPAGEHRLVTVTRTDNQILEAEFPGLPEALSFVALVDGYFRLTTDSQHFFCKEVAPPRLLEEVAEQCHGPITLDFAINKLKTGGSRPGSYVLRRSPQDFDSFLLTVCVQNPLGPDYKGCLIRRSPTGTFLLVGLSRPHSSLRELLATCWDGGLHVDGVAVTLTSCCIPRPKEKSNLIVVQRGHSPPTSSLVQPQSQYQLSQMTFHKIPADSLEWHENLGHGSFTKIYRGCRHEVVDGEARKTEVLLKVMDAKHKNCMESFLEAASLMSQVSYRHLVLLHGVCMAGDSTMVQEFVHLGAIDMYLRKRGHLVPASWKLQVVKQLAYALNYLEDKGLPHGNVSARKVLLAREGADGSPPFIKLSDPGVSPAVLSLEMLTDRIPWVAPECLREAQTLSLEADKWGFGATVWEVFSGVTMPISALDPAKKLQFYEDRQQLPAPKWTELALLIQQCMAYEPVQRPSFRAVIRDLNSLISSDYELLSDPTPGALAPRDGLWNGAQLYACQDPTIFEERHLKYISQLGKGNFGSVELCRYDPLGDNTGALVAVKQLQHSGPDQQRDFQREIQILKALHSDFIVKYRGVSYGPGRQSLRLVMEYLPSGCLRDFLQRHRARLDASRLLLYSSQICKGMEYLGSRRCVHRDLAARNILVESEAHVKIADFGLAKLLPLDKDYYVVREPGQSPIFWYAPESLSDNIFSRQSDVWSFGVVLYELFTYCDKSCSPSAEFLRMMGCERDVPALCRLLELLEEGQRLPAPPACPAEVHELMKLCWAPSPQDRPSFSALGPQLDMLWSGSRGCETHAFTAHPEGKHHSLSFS
Source text: as §3, §4

JAK 1 = JAK 1 (Homo sapiens, UniProt P23458); assay: JAK Human TK kinase enzymatic radiometric assay (Eurofins), JAK 1; details: value close to 100 indicates low JAK activity of the compound
JAK 1, sequence (P23458 whole entry): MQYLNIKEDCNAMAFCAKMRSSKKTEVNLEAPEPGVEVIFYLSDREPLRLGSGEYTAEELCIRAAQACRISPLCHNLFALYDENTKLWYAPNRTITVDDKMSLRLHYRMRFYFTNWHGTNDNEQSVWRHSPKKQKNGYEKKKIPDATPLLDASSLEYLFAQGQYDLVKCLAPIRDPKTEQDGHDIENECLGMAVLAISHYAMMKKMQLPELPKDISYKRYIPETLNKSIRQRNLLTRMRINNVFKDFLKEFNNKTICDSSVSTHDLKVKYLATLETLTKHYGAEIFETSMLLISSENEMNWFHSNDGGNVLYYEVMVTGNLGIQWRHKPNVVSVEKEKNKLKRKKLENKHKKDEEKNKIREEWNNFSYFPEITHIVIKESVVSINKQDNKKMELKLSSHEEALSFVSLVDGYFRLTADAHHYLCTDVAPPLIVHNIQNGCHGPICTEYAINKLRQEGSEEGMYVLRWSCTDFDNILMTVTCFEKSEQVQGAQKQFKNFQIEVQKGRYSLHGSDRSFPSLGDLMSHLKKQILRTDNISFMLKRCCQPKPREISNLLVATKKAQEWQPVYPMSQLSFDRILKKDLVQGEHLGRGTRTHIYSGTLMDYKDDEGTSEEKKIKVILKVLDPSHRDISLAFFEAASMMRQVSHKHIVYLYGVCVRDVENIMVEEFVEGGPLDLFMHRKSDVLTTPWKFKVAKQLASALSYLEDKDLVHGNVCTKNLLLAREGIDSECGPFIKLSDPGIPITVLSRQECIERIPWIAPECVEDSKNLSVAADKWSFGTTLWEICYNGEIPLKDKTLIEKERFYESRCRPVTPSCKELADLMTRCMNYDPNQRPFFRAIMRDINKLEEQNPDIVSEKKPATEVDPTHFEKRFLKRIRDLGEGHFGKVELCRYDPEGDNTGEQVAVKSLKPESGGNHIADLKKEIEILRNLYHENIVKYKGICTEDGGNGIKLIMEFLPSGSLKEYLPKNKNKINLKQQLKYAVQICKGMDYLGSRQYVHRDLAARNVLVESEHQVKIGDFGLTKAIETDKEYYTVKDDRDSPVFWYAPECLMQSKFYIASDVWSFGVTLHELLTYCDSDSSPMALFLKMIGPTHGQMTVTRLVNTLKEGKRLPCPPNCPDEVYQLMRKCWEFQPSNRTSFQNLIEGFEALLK

[3] = DAF-2 assay of NO scavenging activity (NO donor SNAP); assay type: biochemical; details: DAF-2 10 µM, SNAP 100 µM, PBS, 3 hours, 37°C
[4] = Efficacy on collagen-induced rheumatoid arthritis (arthritis score); assay type: in vivo, DBA/1 male mice; details: FIG. 7
Procedure: The experimental animals were 30 8-week-old DBA/1 male mice. […] The number of normal mice was set to five in order to minimize the number of experimental animals. The group administered with Compound (1) consisted of 5 to 6 mice, a minimal number required to obtain statistically meaningful data given the limited amount of the drug.
(§5) In order to establish a rheumatoid arthritis model, 100 µL of a mixture solution in which 2 mg/mL of chick type II collagen and 1 mg/mL of Complete Freund's Adjuvant (CFA) were mixed in a ratio of 1:1 was administered intradermally to each of the mouse tails. After 19 days, 100 µL of an emulsion in which 2 mg/mL of chick type II collagen and Incomplete Freund's Adjuvant (IFA) were mixed in a ratio of 1:1 was administered intradermally to each of the mouse tails.
The test substances of Table 23 were administered orally every day according to the drug dosing period and dosing frequency. As for the rheumatoid arthritis score (arthritis score), the score of each of the four paws was quantified according to the criteria shown in the following Table 24, and the individual scores were summed to generate the final score.
The experimental animals were 31 8-week-old DBA/1 male mice. […] The number of normal mice was set to five in order to minimize the number of experimental animals. The group administered with Compound (11) consisted of 5 mice, a minimal number required to obtain statistically meaningful data given the limited amount of the drug. Each of the remaining groups consisted of 7 mice, with two extra mice added to account for experimental error.
as §5
Oral administration was conducted daily according to the dose, dosing frequency and dosing period of Table 25. Based on the criteria shown in Table 24, rheumatoid arthritis score for the four paws were quantified and summed to generate the score.

Row | SMILES | activity at 10 µM (Raw 264.7 cell line) | activity at 10 µM (splenocytes [1]) | activity at 10 µM (IFN-γ) | inhibition at 10 µM (splenocytes [2]) | JAK 2 Activity (JAK 2; 0.1 nM) | JAK 2 Activity (JAK 2; 1 nM) | JAK 2 Activity (JAK 2; 10 nM) | JAK 2 Activity (JAK 2; 100 nM) | JAK 3 Activity (JAK 3; 0.1 nM) | JAK 3 Activity (JAK 3; 1 nM) | JAK 3 Activity (JAK 3; 10 nM) | JAK 3 Activity (JAK 3; 100 nM) | JAK 1 Activity (JAK 1; 0.1 nM) | JAK 1 Activity (JAK 1; 1 nM) | JAK 1 Activity (JAK 1; 10 nM) | JAK 1 Activity (JAK 1; 100 nM) | also measured
1 | Cc1ccc(NC(=O)N(C(=O)n2ccc3c(N(C)[C@H]4CN(C(=O)CC#N)CC[C@H]4C)ncnc32)c2ccc(C)cc2N)c(N)c1 [Example 12, N-(2-amino-4-methylphenyl)-N-((2-amino-4-methylphenyl)carbamoyl)-4-(((3R,4R)-1-(2-cyanoacetyl)-4-methylpiperidin-3-yl) (methyl)amino)-7H-pyrrolo[2,3-d]pyrimidine-7-carboxamide] | 31.7 ± 0.15% | 64.6 ± 3.65% | 97 ± 0.05% | 64 ± 6.17% | 108 | 111 | 102 | 92 | 114 | 107 | 111 | 88 | 109 | 110 | 103 | 81 | activity at 10 µM (IL-6 (Interleukin-6)): 61.7 ± 1.85%
2 | C[C@@H]1CCN(C(=O)CC#N)C[C@@H]1N(C)c1ncnc2c1ccn2C(=O)N(C)CCN(C)C(=O)Nc1cc(N(C)C)ccc1N [Example 21, N-(2-(3-(2-amino-5-(dimethylamino)phenyl)-1-methylureido)ethyl)-4-(((3R,4R)-1-(2-cyanoacetyl)-4-methylpiperidin-3-yl) (methyl)amino)-N-methyl-7H-pyrrolo[2,3-d]pyrimidine-7-carboxamide] | 61.2 ± 0.15% | 52.4 ± 0.67% | 98.1 ± 0.03% | 48.3 ± 3.72% | – | – | – | – | – | – | – | – | 97 | 105 | 102 | 85 | NO Scavenging Activity (%) (Mean±SD) ([3]; compound 1 µM): 2.57± 1.66%; NO Scavenging Activity (%) (Mean±SD) ([3]; compound 5 µM): 38.13 ±1.01%; NO Scavenging Activity (%) (Mean±SD) ([3]; compound 10 µM): 66.27 ±0.14%
3 | C[C@@H]1CCN(C(=O)CC#N)C[C@@H]1N(C)c1ncnc2c1ccn2C(=O)N(C(=O)Nc1ccccc1N)c1ccccc1N [Example 11, N-(2-aminophenyl)-N-((2-aminophenyl)carbamoyl)-4-(((3R,4R)-1-(2-cyanoacetyl)-4-methylpiperidin-3-yl)(methyl)amino)-7H-pyrrolo[2,3-d]pyrimidine-7-carboxamide] | 48.7 ± 0.01% | 67.7 ± 0.84% | 57.6 ± 15.5% | 49.7 ± 3.78% | 91 | 99 | 89 | 98 | 103 | 103 | 98 | 94 | 108 | 103 | 105 | 101 | rheumatoid arthritis-alleviating efficacy compared with tofacitinib ([4]; 20 mg/kg oral once daily (QD) vs tofacitinib 10 mg/kg BID, entire 40-day period): alleviating efficacy comparable to that of tofacitinib; rheumatoid arthritis-alleviating efficacy (arthritis score), statistics ([4]; 20 mg/kg oral once daily (QD)): no statistical differences were verified
